The record followed here is patent US5705524A, “Thiepane compounds” (Gilead Sciences, Inc., priority 1995, dated 1998).

pIC50: −log10 of the molar value. Like-named read-outs stand apart in the source and are kept apart here.

The target of one experiment is T1, HIV protease (Human immunodeficiency virus type 1 group M subtype B, UniProt P04585).
T1 construct: measurement of HIV-protease (HIV-PR) activity
The experiment is described as follows: biochemical. The procedure:
Compositions to be subjected to enzyme assay are lyophilited and diluted in DMSO to 100-1000 μM. Compositions having apparent IC50 <1 μm are diluted to 100 μM.
The assay is a fluorometric method for measurement of HIV-protease (HIV-PR) activity utilizing a synthetic peptide substrate for HIV-PR based on that described by Matayoshi, E. D.; Wang, G. T.; Krafft, G. A.; and Erickson, J. W.; Science, 1990, 247, 954-958; and Wang, G. T.; Huffker, J. A.; Matayoshi, E.; and Krafft, G. A.; Tetrahedron Lett., 1990, 165, 6493-6496.
1.0 mM ethylenediaminetetraacetic acid (EDTA)
1.0 mM dithiothreitol (DTT)
10% dimethyl sulfoxide (DMSO)
1 mg/mL bovine serum albumin (BSA) adjusted to pH 4.7
1. Prepare a solution of 2 μM HIV Protease Substrate 1 in the Assay Buffer.
2. Dispense the substrate solution into UV-pass fluorescence cuvettes (1 cm pathlength).
3. Set the excitation and emission monochromators of the spectrofluorimeter to 340 nm and 490 nm, respectively. To obtain the same kinetic constants as reported, cuvettes should be held at 37° C. throughout the assay.
4. Begin each assay by adding a small amount (<3% of the final volume) of HIV-PR-containing solution diluted tin the Assay Buffer.
5. Measure the initial rate of cleavage of fluorogenic substrate by monitoring the increase in fluorescence signal at 490 nm for 5-8 min at 37° C.
(§1) The apparent IC50 and IC50 values reported below in Table 25 were determined using the assays of Example 34 and 35, respectively. The values are indicated as follows: +=10-50 μM, ++2-10 μM, and +++<2 μM.

Another experiment has as its system HIV IIIB. Put plainly: XTT Cell Culture Assay, cells infected with HIV IIIB (Example 35). In kind it is cell-based. The note with it: read-out: Cell Culture IC50. As for the experimental part: The method of Weislow, O. S.; Kiser, R.; Fine, D. L.; Bader, J.; Shoemaker, R. H.; and Boyd, M. R.; J. Nat. Cancer Institute, 1989, 81(8) 577-586 was applied with the following minor modifications: Infection of cells with HIV IIIB was performed without polybrene. Cells were distributed to Microtiter wells containing the compound of the invention 4 h after infection with HIV IIIB. 2×XTT was added at 5-6 days post infection. 20 μl 2% Triton X-100 was added 1 hour after XTT addition.
1. Add 4 ml of XTT (5 mg/ml) to 8 ml of Deficient RPMI medium (no phenol red, no serum). Mix briefly at 45° C. to dissolve XTT.
2. Add 800 μl of PMS (0.2 mg/ml) to XTT/RPMI mixture.
3. Remove 100 μl of cell free media from each well of a 96 well plate and replace with 100 μl of the XTT/PMS mixture.
4. Incubate at 37° C. for 1.5-2 h.
5. Read absorbance at 450 nm. Absorbance values are directly proportional to cell viability.
as §1
Background: Formazan colour is commonly taken as a measure of viable cells.

[1] abbreviates: fluorogenic peptide substrate, 37° C., pH 4.7, read-out: Apparent Enzyme IC50.
Setting [2] is: Human immunodeficiency virus 1, IIIB, HIV IIIB infected cells, XTT at 5-6 days post infection.
Where [3] appears, read: HIV IIIB infected cells, XTT at 5-6 days post infection.
[4] abbreviates: Human immunodeficiency virus 1, IIIB.
Setting [5] is: Apparent Enzyme IC50, fluorogenic peptide substrate, 37° C., pH 4.7.

The pIC50 is −log10 of the IC50, conventionally taken in molar units. In the case of `O[C@@H]1[C@@H](O)[C@@H](OCc2ccccc2)CS[C@H](Cc2ccccc2)[C@@H]1OCc1ccccc1` [107/2], the pIC50 on HIV protease (setting [1]) was 4.30 to 5.00.

On to `[O-][S@+]1C[C@H](OCc2ccccc2)[C@H](O)[C@@H](O)[C@@H](OCc2ccccc2)[C@H]1Cc1ccccc1` [107/3], for which, at HIV protease (setting [1]), the negative-log IC50 (pIC50) was 5.00 to 5.70.

With `[O-][S@@+]1C[C@H](OCc2ccccc2)[C@H](O)[C@@H](O)[C@@H](OCc2ccccc2)[C@H]1Cc1ccccc1` [107/4], the negative logarithm of the IC50 (pIC50) in the experiment with HIV IIIB (setting [2]) is 4.30 to 5.00; at HIV protease (setting [1]), 5.00 to 5.70.

Consider `O=S1(=O)C[C@H](OCc2ccccc2)[C@H](O)[C@@H](O)[C@@H](OCc2ccccc2)[C@H]1Cc1ccccc1` [107/5], for which the pIC50 is 4.30 to 5.00 in the experiment on HIV IIIB (setting [2]) and above 5.70 on HIV protease (setting [1]).

On to `N#Cc1ccccc1O[C@@H]1[C@H](O)[C@@H](O)[C@@H](Oc2ccccc2C#N)CS(=O)(=O)[C@@H]1Cc1ccccc1` [107/10], for which the pIC50 on HIV protease (setting [1]) is 5.00 to 5.70.

In the case of `N#Cc1ccc(O[C@@H]2[C@H](O)[C@@H](O)[C@@H](Oc3ccc(C#N)cc3)CS[C@@H]2Cc2ccccc2)cc1` [107/12], the pIC50 at HIV protease (setting [1]) is 5.00 to 5.70.

Turning to `N#Cc1ccc(O[C@@H]2[C@H](O)[C@@H](O)[C@@H](Oc3ccc(C#N)cc3)CS(=O)(=O)[C@@H]2Cc2ccccc2)cc1` [107/15], the pIC50 on HIV protease (setting [1]) is 5.00 to 5.70.

For the compound `[O-][S+]1[C@H](Cc2ccccc2)[C@H](OCc2ccccc2)[C@H](O)[C@@H](O)[C@@H](OCc2ccccc2)[C@H]1Cc1ccccc1` (stereo partly shown) [108/4], the pIC50 in the experiment with HIV IIIB (setting [3]) and at HIV protease (setting [1]) was above 5.70 throughout.

Regarding `O=S1(=O)[C@H](Cc2ccccc2)[C@H](OCc2ccccc2)[C@H](O)[C@@H](O)[C@@H](OCc2ccccc2)[C@H]1Cc1ccccc1` [108/5], in the experiment on HIV IIIB (setting [2]), the pIC50 was above 5.70.

For the compound `[O-][S@@+]1[C@H](Cc2ccccc2)[C@H](OCc2ccccc2)[C@H](O)[C@@H](O)[C@@H](OCc2ccccc2)[C@@H]1Cc1ccccc1` [108/17], the pIC50 in the experiment with HIV IIIB (setting [2]) and at HIV protease (setting [1]) was 5.00 to 5.70 throughout.

In the case of `O=S1(=O)[C@H](Cc2ccccc2)[C@H](OCc2ccccc2)[C@H](O)[C@@H](O)[C@@H](OCc2ccccc2)[C@@H]1Cc1ccccc1` [108/18], the negative logarithm of the IC50 (pIC50) was 4.30 to 5.00 in the experiment with HIV IIIB (setting [2]) and above 5.70 at HIV protease (setting [1]).

For `O=S1(=O)[C@H](Cc2ccccc2)[C@H](OCc2ccccc2)[C@H](O)[C@@H](O)[C@H](OCc2ccccc2)[C@H]1Cc1ccccc1` [108/21], the pIC50 in the experiment with HIV IIIB (setting [2]) and on HIV protease (setting [1]) was above 5.70 in each case.

Take `O=S1(=O)[C@@H](Cc2ccccc2)[C@@H](OCc2ccccc2)[C@@H](O)[C@H](O)[C@H](OCc2ccccc2)[C@@H]1Cc1ccccc1` [108/27]: the pIC50 in the experiment with HIV IIIB (setting [2]) and on HIV protease (setting [1]) was 4.30 to 5.00 in each case.

With `[O-][S+]1[C@H](Cc2ccccc2)[C@H](OCc2ccccc2)[C@H](O)[C@@H](O)[C@@H](OCc2ccccc2)[C@H]1Cc1ccccc1` (stereo partly shown) [120/3], the pIC50 with HIV IIIB (setting [3]) is 4.30 to 5.00; at HIV protease (setting [1]), above 5.70.

In the case of `CC1(C)O[C@@H]2[C@@H](O1)[C@@H](OCc1ccccn1)[C@@H](Cc1ccccc1)S(=O)(=O)[C@H](Cc1ccccc1)[C@@H]2OCc1ccccn1` [120/6], the figures for the pIC50 with HIV IIIB (setting [2]) and on HIV protease (setting [1]) were 5.00 to 5.70 and above 5.70, respectively.

As for `CC1(C)O[C@@H]2[C@@H](O1)[C@@H](OCc1cccc[n+]1[O-])[C@@H](Cc1ccccc1)S(=O)(=O)[C@H](Cc1ccccc1)[C@@H]2OCc1ccccn1` [120/7], the pIC50 with HIV IIIB (setting [2]) is 5.00 to 5.70; on HIV protease (setting [1]), above 5.70.

As to `O=S1(=O)[C@H](Cc2ccccc2)[C@H](OCc2cccnc2)[C@H](O)[C@@H](O)[C@@H](OCc2cccnc2)[C@H]1Cc1ccccc1` [120/15], the pIC50 in the experiment with HIV IIIB (setting [2]) and at HIV protease (setting [1]) was above 5.70 throughout.

As to `O=S1(=O)[C@H](Cc2ccccc2)[C@H](OCc2cccnc2)[C@H](O)[C@@H](O)[C@@H](OCc2ccc[n+]([O-])c2)[C@H]1Cc1ccccc1` [120/16], the pIC50 in the experiment on HIV IIIB (setting [2]) and on HIV protease (setting [1]) was above 5.70 throughout.

For the compound `O=S1(=O)[C@H](Cc2ccccc2)[C@H](OCc2ccncc2)[C@H](O)[C@@H](O)[C@@H](OCc2ccncc2)[C@H]1Cc1ccccc1` [120/19], on HIV protease (setting [1]), the pIC50 is above 5.70.

For `Cc1nc(CO[C@@H]2[C@H](O)[C@@H](O)[C@@H](OCc3csc(C)n3)[C@@H](Cc3ccccc3)S(=O)(=O)[C@@H]2Cc2ccccc2)cs1` [120/22], the negative-log IC50 (pIC50) with HIV IIIB (setting [2]) is 4.30 to 5.00; at HIV protease (setting [1]), above 5.70.

As to `O=S1(=O)[C@H](Cc2ccccc2)[C@H](OCc2cncs2)[C@H](O)[C@@H](O)[C@@H](OCc2cncs2)[C@H]1Cc1ccccc1` [120/25], the negative-log IC50 (pIC50) in the experiment on HIV IIIB (setting [2]) and on HIV protease (read-out: Apparent Enzyme IC50) was above 5.70 each time.

Regarding `O=S1(=O)[C@H](Cc2ccccc2)[C@H](Oc2ccccn2)[C@H](O)[C@@H](O)[C@@H](Oc2ccccn2)[C@H]1Cc1ccccc1` [120/28], the pIC50 at HIV protease (setting [1]) is above 5.70.

As for `Cc1cccc(CO[C@@H]2[C@H](O)[C@@H](O)[C@@H](OCc3cccc(C)c3)[C@@H](Cc3ccccc3)S(=O)(=O)[C@@H]2Cc2ccccc2)c1` [120/31], the pIC50 in the experiment on HIV IIIB (setting [2]) and on HIV protease (setting [1]) was above 5.70 each time.

Consider `COc1cccc(CO[C@@H]2[C@H](O)[C@@H](O)[C@@H](OCc3cccc(OC)c3)[C@@H](Cc3ccccc3)S(=O)(=O)[C@@H]2Cc2ccccc2)c1` [120/34], for which the pIC50 with HIV IIIB (setting [2]) and at HIV protease (setting [1]) was above 5.70 in each case.

With `O=S1(=O)[C@H](Cc2ccccc2)[C@H](OCc2cccc(Br)c2)[C@H](O)[C@@H](O)[C@@H](OCc2cccc(Br)c2)[C@H]1Cc1ccccc1` [120/37], on HIV protease (setting [1]), the pIC50 was above 5.70.

As to `O=S1(=O)[C@H](Cc2ccccc2)[C@H](OCc2cccc(OCc3ccccc3)c2)[C@H](O)[C@@H](O)[C@@H](OCc2cccc(OCc3ccccc3)c2)[C@H]1Cc1ccccc1` [120/40], the pIC50 at HIV protease (setting [1]) is above 5.70.

As to `O=S1(=O)[C@H](Cc2ccccc2)[C@H](OCc2cccc(O)c2)[C@H](O)[C@@H](O)[C@@H](OCc2cccc(O)c2)[C@H]1Cc1ccccc1` [120/41], at HIV protease (setting [1]), the negative-log IC50 (pIC50) was above 5.70.

Take `O=[N+]([O-])c1cccc(CO[C@@H]2[C@H](O)[C@@H](O)[C@@H](OCc3cccc([N+](=O)[O-])c3)[C@@H](Cc3ccccc3)[S+]([O-])[C@@H]2Cc2ccccc2)c1` (stereo partly shown) [120/44]: the pIC50 in the experiment with HIV IIIB (setting [4]) and on HIV protease (setting [5]) was above 5.70 throughout.

With `O=[N+]([O-])c1cccc(CO[C@@H]2[C@H](O)[C@@H](O)[C@@H](OCc3cccc([N+](=O)[O-])c3)[C@@H](Cc3ccccc3)S(=O)(=O)[C@@H]2Cc2ccccc2)c1` [120/45], the pIC50 in the experiment with HIV IIIB (setting [4]) and on HIV protease (setting [5]) was above 5.70 in each case.

For `Nc1cccc(CO[C@@H]2[C@H](O)[C@@H](O)[C@@H](OCc3cccc(N)c3)[C@@H](Cc3ccccc3)S(=O)(=O)[C@@H]2Cc2ccccc2)c1` [120/46], the pIC50 in the experiment with HIV IIIB (setting [2]) and at HIV protease (setting [1]) was above 5.70 throughout.
